Results reported in patent publication US9833497B2, “Human originated EGF domain proteins and use of the same” (CHENGDU SOURCEBIO LIMITED-LIABILITY COMPANY, priority 2013, dated 2017).

Key:
Type in all cases: cell-based
Citrobacter diversus = assay: MIC against Gram-negative bacteria: Citrobacter diversus; details: 5×10^5 CFU/mL
Outline: (§1)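 First, colonies from LB agar were grown in LB at 37° C, 185 rpm, to McFarland turbidity 0.5, then centrifuged and resuspended in fresh LB. Next, wells received 5×10^5 CFU/mL bacteria plus two-fold serially diluted EGF domain protein (triplicate). Finally, plates were shaken at 37° C and the no-growth concentration taken as MIC.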

Enterobacter cloacae = assay: MIC against Gram-negative bacteria: Enterobacter cloacae; details: 5×10^5 CFU/mL
Outline: as §1

Moraxella catarrhalis = assay: MIC against Gram-negative bacteria: Moraxella catarrhalis; details: 5×10^5 CFU/mL
Outline: as §1

Pseudomonas aeruginosa = assay: MIC against Gram-negative bacteria: Pseudomonas aeruginosa; details: 5×10^5 CFU/mL
Outline: as §1

Aeromonas hydrophila = assay: MIC against Gram-negative bacteria: Aeromonas hydrophila; details: 5×10^5 CFU/mL
Outline: as §1

Proteus vulgaris = assay: MIC against Gram-negative bacteria: Proteus vulgaris; details: 5×10^5 CFU/mL
Outline: as §1

Klebsiella pneumonia = assay: MIC against Gram-negative bacteria: Klebsiella pneumonia; details: 5×10^5 CFU/mL
Outline: as §1

Serratia marcescens = assay: MIC against Gram-negative bacteria: Serratia marcescens; details: 5×10^5 CFU/mL
Outline: as §1

E. coli DH5α = assay: Antibacterial activity: MIC and growth curve against E. coli DH5α in 96-well plate; details: minimal inhibitory concentration against E. coli DH5α; 96-well plate, 5×10^5 CFU/mL, 37° C., judged after 8 h
Outline: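 Log-phase DH5α (OD600 about 0.5, 37° C, 185 rpm in LB) was pelleted, resuspended in fresh LB and seeded at 5×10^5 CFU/mL with recombinant protein at 50, 25 and 12.5 μg/mL (two-fold series), in triplicate. Plates were shaken at 175 rpm, 37° C, and OD600 was read every 30 min. MIC was the lowest concentration with no growth.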

E. coli BL21 = assay: MIC against Gram-negative bacteria: E. coli BL21; details: E. coli BL21, 5×10^5 CFU/mL
Outline: as §1

Proteus mirabilis = assay: MIC against Gram-negative bacteria: Proteus mirabilis; details: 5×10^5 CFU/mL
Outline: as §1

[1] = Citrobacter diversus, 10 h cultivation at 37° C.
[2] = Enterobacter cloacae, 10 h cultivation at 37° C.
[3] = Moraxella catarrhalis, 10 h cultivation at 37° C.
[4] = Pseudomonas aeruginosa, 10 h cultivation at 37° C.
[5] = Aeromonas hydrophila, 10 h cultivation at 37° C.
[6] = Proteus vulgaris, 10 h cultivation at 37° C.
[7] = Klebsiella pneumonia, 10 h cultivation at 37° C.
[8] = Serratia marcescens, 10 h cultivation at 37° C.
[9] = Proteus mirabilis, 10 h cultivation at 37° C.
[10] = Citrobacter diversus, 96-well plate, 37° C., 10 h
[11] = Enterobacter cloacae, 96-well plate, 37° C., 10 h
[12] = Moraxella catarrhalis, 96-well plate, 37° C., 10 h
[13] = Pseudomonas aeruginosa, 96-well plate, 37° C., 10 h
[14] = Aeromonas hydrophila, 96-well plate, 37° C., 10 h
[15] = Proteus vulgaris, 96-well plate, 37° C., 10 h
[16] = Klebsiella pneumonia, 96-well plate, 37° C., 10 h
[17] = Serratia marcescens, 96-well plate, 37° C., 10 h
[18] = Proteus mirabilis, 96-well plate, 37° C., 10 h

With “PRT1359 (SREICPVPCSEEHGTCVDGLCVCHDGFAGDDCN; listed as Homo sapiens)” the “MIC against C. diversus” value (Citrobacter diversus; [1]) was 25 µg/mL, the “MIC against E. cloacae” value (Enterobacter cloacae; [2]) was 25 µg/mL and the “MIC against M. catarrhalis” value (Moraxella catarrhalis; [3]) was 12.5 µg/mL. For the same substance, the “MIC against P. aeruginosa” value (Pseudomonas aeruginosa; [4]) was 25 µg/mL, the “MIC against A. hydrophila” value (Aeromonas hydrophila; [5]) was 12.5 µg/mL and the “MIC against P. vulgaris” value (Proteus vulgaris; [6]) was 12.5 µg/mL. The “MIC against K. pneumonia” value (Klebsiella pneumonia; [7]) was 12.5 µg/mL, the “MIC against S. marcescens” value (Serratia marcescens; [8]) was 25 µg/mL and the MIC (E. coli DH5α) was 25 µg/mL. The “MIC against E. coli BL21” value (E. coli BL21; 10 h cultivation at 37° C.) was 12.5 µg/mL and the “MIC against P. mirabilis” value (Proteus mirabilis; [9]) was 25 µg/mL.

With “PRT120 (CRPCQNGGLATVEGTHCLCHCKPYTFGAACE; listed as Homo sapiens)” the “MIC (μg/mL) C. diversus” value (Citrobacter diversus; [10]) was 12.5 µg/mL, the “MIC (μg/mL) E. cloacae” value (Enterobacter cloacae; [11]) was 12.5 µg/mL and the “MIC (μg/mL) M. catarrhalis” value (Moraxella catarrhalis; [12]) was 100 µg/mL. For the same substance, the “MIC (μg/mL) P. aeruginosa” value (Pseudomonas aeruginosa; [13]) was 12.5 µg/mL, the “MIC (μg/mL) A. hydrophila” value (Aeromonas hydrophila; [14]) was 12.5 µg/mL and the “MIC (μg/mL) P. vulgaris” value (Proteus vulgaris; [15]) was 25 µg/mL. The “MIC (μg/mL) K. pneumonia” value (Klebsiella pneumonia; [16]) was 12.5 µg/mL, the “MIC (μg/mL) S. marcescens” value (Serratia marcescens; [17]) was 12.5 µg/mL and the MIC (E. coli DH5α) was 12.5 µg/mL. For the same substance, the “MIC (μg/mL) E. coli BL21” value (E. coli BL21; 96-well plate, 37° C., 10 h) was 12.5 µg/mL and the “MIC (μg/mL) P. mirabilis” value (Proteus mirabilis; [18]) was 12.5 µg/mL.

In the case of “PRT25 (PGVCRNGGTCTDAPNGGFRCQCPAGGAFEGPRCE; listed as Homo sapiens)”, the “MIC (μg/mL) C. diversus” value (Citrobacter diversus; [10]) is reported as 100 µg/mL, the “MIC (μg/mL) E. cloacae” value (Enterobacter cloacae; [11]) is reported as 25 µg/mL and the “MIC (μg/mL) M. catarrhalis” value (Moraxella catarrhalis; [12]) is reported as 25 µg/mL. The “MIC (μg/mL) P. aeruginosa” value (Pseudomonas aeruginosa; [13]) was 25 µg/mL, the “MIC (μg/mL) A. hydrophila” value (Aeromonas hydrophila; [14]) was 12.5 µg/mL and the “MIC (μg/mL) P. vulgaris” value (Proteus vulgaris; [15]) was 25 µg/mL. The “MIC (μg/mL) K. pneumonia” value (Klebsiella pneumonia; [16]) was 50 µg/mL, the “MIC (μg/mL) S. marcescens” value (Serratia marcescens; [17]) was 12.5 µg/mL and the MIC (E. coli DH5α) was 50 µg/mL. The “MIC (μg/mL) E. coli BL21” value (E. coli BL21; 96-well plate, 37° C., 10 h) was 50 µg/mL and the “MIC (μg/mL) P. mirabilis” value (Proteus mirabilis; [18]) was 12.5 µg/mL.

“PRT873 (CECYGHSNRCSYIDFLNVVTCVSCKHNTRGQHCQHCRLGYYRNGSAELDDENVCIE; listed as Homo sapiens)” was tested, and the “MIC (μg/mL) C. diversus” value (Citrobacter diversus; C. diversus, 10 h cultivation at 37° C.) was 25 µg/mL, the “MIC (μg/mL) E. cloacae” value (Enterobacter cloacae; E. cloacae, 10 h cultivation at 37° C.) was 25 µg/mL and the “MIC (μg/mL) M. catarrhalis” value (Moraxella catarrhalis; M. catarrhalis, 10 h cultivation at 37° C.) was 12.5 µg/mL. For the same substance, the “MIC (μg/mL) P. aeruginosa” value (Pseudomonas aeruginosa; P. aeruginosa, 10 h cultivation at 37° C.) was 12.5 µg/mL, the “MIC (μg/mL) A. hydrophila” value (Aeromonas hydrophila; A. hydrophila, 10 h cultivation at 37° C.) was 50 µg/mL and the “MIC (μg/mL) P. vulgaris” value (Proteus vulgaris; P. vulgaris, 10 h cultivation at 37° C.) was 50 µg/mL. The “MIC (μg/mL) K. pneumonia” value (Klebsiella pneumonia; K. pneumonia, 10 h cultivation at 37° C.) was 25 µg/mL, the “MIC (μg/mL) S. marcescens” value (Serratia marcescens; S. marcescens, 10 h cultivation at 37° C.) was 12.5 µg/mL and the MIC (E. coli DH5α) was 12.5 µg/mL. The “MIC (μg/mL) E. coli BL21” value (E. coli BL21; 10 h cultivation at 37° C.) was 50 µg/mL and the “MIC (μg/mL) P. mirabilis” value (Proteus mirabilis; P. mirabilis, 10 h cultivation at 37° C.) was 25 µg/mL.

For “PRT141 (DPCENNPCLHGGTCNANGTMYGCSCDQGFAGENCE; listed as Homo sapiens)”, the “MIC (μg/mL) C. diversus” value (Citrobacter diversus; [10]) was 50 µg/mL, the “MIC (μg/mL) E. cloacae” value (Enterobacter cloacae; [11]) was 12.5 µg/mL and the “MIC (μg/mL) M. catarrhalis” value (Moraxella catarrhalis; [12]) was 12.5 µg/mL. For the same substance, the “MIC (μg/mL) P. aeruginosa” value (Pseudomonas aeruginosa; [13]) was 12.5 µg/mL, the “MIC (μg/mL) A. hydrophila” value (Aeromonas hydrophila; [14]) was 25 µg/mL and the “MIC (μg/mL) P. vulgaris” value (Proteus vulgaris; [15]) was 12.5 µg/mL. For the same substance, the “MIC (μg/mL) K. pneumonia” value (Klebsiella pneumonia; [16]) was 25 µg/mL, the “MIC (μg/mL) S. marcescens” value (Serratia marcescens; [17]) was 50 µg/mL and the MIC (E. coli DH5α) was 12.5 µg/mL. The “MIC (μg/mL) E. coli BL21” value (E. coli BL21; 96-well plate, 37° C., 10 h) was 25 µg/mL and the “MIC (μg/mL) P. mirabilis” value (Proteus mirabilis; [18]) was 50 µg/mL.

With “PRT1365 (SQLRCPNDCHSRGRCVEGKCVCEQGFKGYDCS; listed as Homo sapiens)” the “MIC against C. diversus” value (Citrobacter diversus; [1]) was 50 µg/mL, the “MIC against E. cloacae” value (Enterobacter cloacae; [2]) was 25 µg/mL and the “MIC against M. catarrhalis” value (Moraxella catarrhalis; [3]) was 25 µg/mL. For the same substance, the “MIC against P. aeruginosa” value (Pseudomonas aeruginosa; [4]) was 25 µg/mL, the “MIC against A. hydrophila” value (Aeromonas hydrophila; [5]) was 12.5 µg/mL and the “MIC against P. vulgaris” value (Proteus vulgaris; [6]) was 25 µg/mL. For the same substance, the “MIC against K. pneumonia” value (Klebsiella pneumonia; [7]) was 50 µg/mL, the “MIC against S. marcescens” value (Serratia marcescens; [8]) was 12.5 µg/mL and the MIC (E. coli DH5α) was 12.5 µg/mL. The “MIC against E. coli BL21” value (E. coli BL21; 10 h cultivation at 37° C.) was 100 µg/mL and the “MIC against P. mirabilis” value (Proteus mirabilis; [9]) was 12.5 µg/mL.
